The structures appear in SMILES notation.

The subject of one assay is Italian ryegrass. Put plainly: Test Example 4: herbicidal effect by soil treatment (Table 19, symbol K). To be noted: AAH 320 g/ha. The format is in vivo, Italian ryegrass (Lolium multiflorum). The procedure, abridged:
(§1)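 Herbicidal effect was rated 3 weeks after treatment, using the scoring criteria of an earlier test. The compound, formulated as an emulsion and diluted in water to a set herbicide amount, had been sprayed uniformly on soil over freshly sown seeds. Growth took place in a greenhouse at 25° C. to 30° C.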
For the compound `CCCC(=O)Oc1c(C)nn(C)c(=O)c1-c1c(-c2ccc(C(C)C)cc2)sc2ccccc12` [1-126], the “K: Italian ryegrass, herbicidal effect rating” value was 3 (Herbicidal rate of 40% or more and less than 70%).
For the compound `COCc1ccc(-c2sc3ccccc3c2-c2c(O)c(C)nn(C)c2=O)cc1` [1-131], the “K: Italian ryegrass, herbicidal effect rating” value is given as 5 (Herbicidal rate of 90% or more (almost completely withered)).

The next assay has as its system chickweed. Put plainly: Test Example 5: herbicidal effect by foliage application, plastic box (Table 20, symbol P). The class given is in vivo, common chickweed (Stellaria media). Conditions: foliage application, AAH 320 g/ha, three weeks after application. The procedure, abridged: (§2)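 Foliar spray test: emulsion formulation diluted in water to a set application rate, sprayed onto 14-day-old plants raised in diluvial soil at 25° C to 30° C under glass. Both herbicidal effect and crop effect rated visually three weeks later.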
As to `CCCC(=O)Oc1c(C)nn(C)c(=O)c1-c1c(-c2ccc(C(C)C)cc2)sc2ccccc12` [1-126], the “P: chickweed, herbicidal effect” value is reported as 5 (Herbicidal rate of 90% or more (almost completely withered)).
On the same count and under the same terms, next, `COCc1ccc(-c2sc3ccccc3c2-c2c(O)c(C)nn(C)c2=O)cc1` [1-131]: 5 (Herbicidal rate of 90% or more (almost completely withered)).

The next assay deals with southern crabgrass. Put plainly: Test Example 5: herbicidal effect by foliage application, plastic box (Table 20, symbol F). The format is in vivo, southern crabgrass (Digitaria ciliaris). Conditions: foliage application, AAH 320 g/ha, three weeks after application. The procedure, abridged:
as §2
Consider `CCCC(=O)Oc1c(C)nn(C)c(=O)c1-c1c(-c2ccc(C(C)C)cc2)sc2ccccc12` [1-126], for which the “F: southern crabgrass, herbicidal effect” value is 1 (Herbicidal rate of 5% or more and less than 20%).
Take `COCc1ccc(-c2sc3ccccc3c2-c2c(O)c(C)nn(C)c2=O)cc1` [1-131]: the “F: southern crabgrass, herbicidal effect” value is 5 (Herbicidal rate of 90% or more (almost completely withered)).

The subject of another assay is redroot pigweed. Put plainly: Test Example 5: herbicidal effect by foliage application, plastic box (Table 20, symbol N). The format is in vivo, redroot pigweed (Amaranthus retroflexus). To be noted: foliage application, AAH 320 g/ha, three weeks after application. The procedure, abridged:
as §2
Regarding `CCCC(=O)Oc1c(C)nn(C)c(=O)c1-c1c(-c2ccc(C(C)C)cc2)sc2ccccc12` [1-126], the “N: redroot pigweed, herbicidal effect” value is 5 (Herbicidal rate of 90% or more (almost completely withered)).
Turning to `COCc1ccc(-c2sc3ccccc3c2-c2c(O)c(C)nn(C)c2=O)cc1` [1-131], the “N: redroot pigweed, herbicidal effect” value is on record as 5 (Herbicidal rate of 90% or more (almost completely withered)).

For a further assay, the system named is Chinese sprangletop. The experiment in a line: Test Example 3: herbicidal effect by foliage application, Wagner pot (Table 18, symbol D). The format is in vivo, chinese sprangletop (Leptochloa chinensis). To be noted: 320 g/ha. The procedure, abridged:
(§3)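 Plants were sown in alluvial soil held under 0.1–0.5 cm standing water and grown 14 days in a greenhouse at 25–30 °C. An emulsifiable formulation, water-diluted to the set dose, was then sprayed onto the foliage, and effects were scored three weeks later using previously defined criteria.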
Turning to `CCCC(=O)Oc1c(C)nn(C)c(=O)c1-c1c(-c2ccc(C(C)C)cc2)sc2ccccc12` [1-126], the “herbicidal effect on D (Chinese sprangletop), rating 0-5” value was 5 (Herbicidal rate of 90% or more (almost completely withered)).
On the same count and under the same terms, then `COCc1ccc(-c2sc3ccccc3c2-c2c(O)c(C)nn(C)c2=O)cc1` [1-131], with 4 (Herbicidal rate of 70% or more and less than 90%).

The subject of a further assay is wild oat. The experiment in a line: Test Example 5: herbicidal effect by foliage application, plastic box (Table 20, symbol I). The format is in vivo, wild oat (Avena fatua). Conditions: foliage application, AAH 320 g/ha, three weeks after application. The procedure, abridged:
as §2
In the case of `CCCC(=O)Oc1c(C)nn(C)c(=O)c1-c1c(-c2ccc(C(C)C)cc2)sc2ccccc12` [1-126], the “I: wild oat, herbicidal effect” value is 2 (Herbicidal rate of 20% or more and less than 40%).
`COCc1ccc(-c2sc3ccccc3c2-c2c(O)c(C)nn(C)c2=O)cc1` [1-131]: the “I: wild oat, herbicidal effect” value is 4 (Herbicidal rate of 70% or more and less than 90%).

A further assay concerns barnyard grass. Put plainly: Test Example 5: herbicidal effect by foliage application, plastic box (Table 20, symbol H). The class given is in vivo, barnyard grass (Echinochloa crus-galli). Conditions: foliage application, AAH 320 g/ha, three weeks after application. The procedure, abridged:
as §2
For the compound `CCCC(=O)Oc1c(C)nn(C)c(=O)c1-c1c(-c2ccc(C(C)C)cc2)sc2ccccc12` [1-126], the “H: barnyard grass, herbicidal effect” value was 4 (Herbicidal rate of 70% or more and less than 90%).
Same read-out and setting: next, `COCc1ccc(-c2sc3ccccc3c2-c2c(O)c(C)nn(C)c2=O)cc1` [1-131]: 5 (Herbicidal rate of 90% or more (almost completely withered)).

For another assay, the system named is rice flat sedge. Put plainly: Test Example 3: herbicidal effect by foliage application, Wagner pot (Table 18, symbol E). The format is in vivo, rice flat sedge (Cyperus iria). Conditions: 320 g/ha. The procedure, abridged: as §3
With `CCCC(=O)Oc1c(C)nn(C)c(=O)c1-c1c(-c2ccc(C(C)C)cc2)sc2ccccc12` [1-126], the “herbicidal effect on E (rice flat sedge), rating 0-5” value is 4 (Herbicidal rate of 70% or more and less than 90%).
On the same count and under the same terms, then `COCc1ccc(-c2sc3ccccc3c2-c2c(O)c(C)nn(C)c2=O)cc1` [1-131], with 5 (Herbicidal rate of 90% or more (almost completely withered)).

In the next assay the test system is persian speedwell. Put plainly: Test Example 4: herbicidal effect by soil treatment (Table 19, symbol R). The class given is in vivo, Persian speedwell (Veronica persica). To be noted: AAH 320 g/ha. The procedure, abridged:
as §1
Regarding `CCCC(=O)Oc1c(C)nn(C)c(=O)c1-c1c(-c2ccc(C(C)C)cc2)sc2ccccc12` [1-126], the “R: persian speedwell, herbicidal effect rating” value is 3 (Herbicidal rate of 40% or more and less than 70%).
Still for that read-out and setting: next, `COCc1ccc(-c2sc3ccccc3c2-c2c(O)c(C)nn(C)c2=O)cc1` [1-131]: 5 (Herbicidal rate of 90% or more (almost completely withered)).

The next assay has as its system blackgrass. The experiment in a line: Test Example 5: herbicidal effect by foliage application, plastic box (Table 20, symbol J). The format is in vivo, blackgrass (Alopecurus myosuroides). Conditions: foliage application, AAH 320 g/ha, three weeks after application. The procedure, abridged: as §2
As to `CCCC(=O)Oc1c(C)nn(C)c(=O)c1-c1c(-c2ccc(C(C)C)cc2)sc2ccccc12` [1-126], the “J: blackgrass, herbicidal effect” value is on record as 0 (Herbicidal rate of 5% or less (almost no effect)).
On the same count and under the same terms, next, `COCc1ccc(-c2sc3ccccc3c2-c2c(O)c(C)nn(C)c2=O)cc1` [1-131]: 4 (Herbicidal rate of 70% or more and less than 90%).

Another assay deals with lambsquarters. Put plainly: Test Example 4: herbicidal effect by soil treatment (Table 19, symbol O). The class given is in vivo, lambsquarters (Chenopodium album). Conditions: AAH 320 g/ha. The procedure, abridged: as §1
Turning to `CCCC(=O)Oc1c(C)nn(C)c(=O)c1-c1c(-c2ccc(C(C)C)cc2)sc2ccccc12` [1-126], the “O: lambsquarters, herbicidal effect rating” value was 2 (Herbicidal rate of 20% or more and less than 40%).
Still for that read-out and setting: next, `COCc1ccc(-c2sc3ccccc3c2-c2c(O)c(C)nn(C)c2=O)cc1` [1-131]: 5 (Herbicidal rate of 90% or more (almost completely withered)).

The next assay concerns windgrass. Put plainly: Test Example 4: herbicidal effect by soil treatment (Table 19, symbol L). The format is in vivo, windgrass (Apera spica-venti). To be noted: AAH 320 g/ha. The procedure, abridged:
as §1
As for `CCCC(=O)Oc1c(C)nn(C)c(=O)c1-c1c(-c2ccc(C(C)C)cc2)sc2ccccc12` [1-126], the “L: windgrass, herbicidal effect rating” value is 0 (Herbicidal rate of 5% or less (almost no effect)).
Consider `COCc1ccc(-c2sc3ccccc3c2-c2c(O)c(C)nn(C)c2=O)cc1` [1-131], for which the “L: windgrass, herbicidal effect rating” value was 2 (Herbicidal rate of 20% or more and less than 40%).

The subject of another assay is oval-leafed pondweed. The experiment in a line: Test Example 1: herbicidal activity, application before weed generation under submerged conditions (Table 16, symbol C). Conditions: 320 g/ha applied herbicide. The class given is in vivo, oval-leafed pondweed (Monochoria vaginalis). The procedure, abridged:
(§4)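 Emulsion formulation, water-diluted to set dose, was put onto the flooded surface (4 cm depth, alluvial soil) the same day weeds were sown and 2.5-leaf rice transplanted. After 3 weeks at 25-30 °C under glass, each species was rated 0 (≤5% kill) to 5 (≥90% kill).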
Turning to `CCCC(=O)Oc1c(C)nn(C)c(=O)c1-c1c(-c2ccc(C(C)C)cc2)sc2ccccc12` [1-126], the “Herbicidal effect on C: oval-leafed pondweed (grade 0-5)” value is 3 (Herbicidal rate of 40% or more and less than 70%).
On the same count and under the same terms, then `COCc1ccc(-c2sc3ccccc3c2-c2c(O)c(C)nn(C)c2=O)cc1` [1-131], with 0 (Herbicidal rate of 5% or less (almost no effect)).

In the next assay the test system is chickweed. Put plainly: Test Example 4: herbicidal effect by soil treatment (Table 19, symbol P). The format is in vivo, common chickweed (Stellaria media). To be noted: AAH 320 g/ha. The procedure, abridged:
as §1
Regarding `CCCC(=O)Oc1c(C)nn(C)c(=O)c1-c1c(-c2ccc(C(C)C)cc2)sc2ccccc12` [1-126], the “P: chickweed, herbicidal effect rating” value was 2 (Herbicidal rate of 20% or more and less than 40%).
As for `COCc1ccc(-c2sc3ccccc3c2-c2c(O)c(C)nn(C)c2=O)cc1` [1-131], the “P: chickweed, herbicidal effect rating” value is listed as 5 (Herbicidal rate of 90% or more (almost completely withered)).

The test system of another assay is barnyard grass. Put plainly: Test Example 3: herbicidal effect by foliage application, Wagner pot (Table 18, symbol H). The class given is in vivo, barnyard grass (Echinochloa crus-galli). To be noted: 320 g/ha. The procedure, abridged:
as §3
For the compound `CCCC(=O)Oc1c(C)nn(C)c(=O)c1-c1c(-c2ccc(C(C)C)cc2)sc2ccccc12` [1-126], the “herbicidal effect on H (barnyard grass), rating 0-5” value is 5 (Herbicidal rate of 90% or more (almost completely withered)).
On the same count and under the same terms, then `COCc1ccc(-c2sc3ccccc3c2-c2c(O)c(C)nn(C)c2=O)cc1` [1-131], with 5 (Herbicidal rate of 90% or more (almost completely withered)).

Another assay concerns Japanese bulrush. Put plainly: Test Example 1: herbicidal activity, application before weed generation under submerged conditions (Table 16, symbol B). The class given is in vivo, Japanese bulrush (Schoenoplectus juncoides). To be noted: 320 g/ha applied herbicide. The procedure, abridged:
as §4
For `CCCC(=O)Oc1c(C)nn(C)c(=O)c1-c1c(-c2ccc(C(C)C)cc2)sc2ccccc12` [1-126], the “Herbicidal effect on B: Japanese bulrush (grade 0-5)” value was 3 (Herbicidal rate of 40% or more and less than 70%).
The same measure, in the same setting: then `COCc1ccc(-c2sc3ccccc3c2-c2c(O)c(C)nn(C)c2=O)cc1` [1-131], with 1 (Herbicidal rate of 5% or more and less than 20%).

Another assay concerns velvetleaf. The experiment in a line: Test Example 5: herbicidal effect by foliage application, plastic box (Table 20, symbol M). To be noted: foliage application, AAH 320 g/ha, three weeks after application. The class given is in vivo, velvetleaf (Abutilon theophrasti). The procedure, abridged:
as §2
Take `CCCC(=O)Oc1c(C)nn(C)c(=O)c1-c1c(-c2ccc(C(C)C)cc2)sc2ccccc12` [1-126]: the “M: velvetleaf, herbicidal effect” value was 4 (Herbicidal rate of 70% or more and less than 90%).
As for `COCc1ccc(-c2sc3ccccc3c2-c2c(O)c(C)nn(C)c2=O)cc1` [1-131], the “M: velvetleaf, herbicidal effect” value is given as 5 (Herbicidal rate of 90% or more (almost completely withered)).

The subject of the next assay is windgrass. Put plainly: Test Example 5: herbicidal effect by foliage application, plastic box (Table 20, symbol L). The format is in vivo, windgrass (Apera spica-venti). To be noted: foliage application, AAH 320 g/ha, three weeks after application. The procedure, abridged: as §2
Take `CCCC(=O)Oc1c(C)nn(C)c(=O)c1-c1c(-c2ccc(C(C)C)cc2)sc2ccccc12` [1-126]: the “L: windgrass, herbicidal effect” value is recorded as 0 (Herbicidal rate of 5% or less (almost no effect)).
On to `COCc1ccc(-c2sc3ccccc3c2-c2c(O)c(C)nn(C)c2=O)cc1` [1-131], for which the “L: windgrass, herbicidal effect” value was 4 (Herbicidal rate of 70% or more and less than 90%).

The test system of a further assay is late watergrass. Put plainly: Test Example 1: herbicidal activity, application before weed generation under submerged conditions (Table 16, symbol A). Conditions: 320 g/ha applied herbicide. The format is in vivo, late watergrass (Echinochloa oryzicola). The procedure, abridged: as §4
Turning to `CCCC(=O)Oc1c(C)nn(C)c(=O)c1-c1c(-c2ccc(C(C)C)cc2)sc2ccccc12` [1-126], the “Herbicidal effect on A: late watergrass (grade 0-5)” value is 3 (Herbicidal rate of 40% or more and less than 70%).
The same measure, in the same setting: next, `COCc1ccc(-c2sc3ccccc3c2-c2c(O)c(C)nn(C)c2=O)cc1` [1-131]: 2 (Herbicidal rate of 20% or more and less than 40%).
